Laboratory results reported in patent publication US20130040952A1 (priority 2011, published 2013).
Where a SMILES comes first, the peptide text is derived from it. Bridges are numbered along the chain shown (N, C = ends).

How the values were obtained:
[1] = target: NP WT trimer (Influenza A virus, UniProt P15682); type: binding, influenza A virus (WSN)
[2] = Cytotoxicity assay in MDCK cells (MTS); type: cell-based; conditions: dog; concentration needed to inhibit 50% growth of MDCK cells in 48 h
Experimental: In a 96-well plate, 1×10^4 MDCK cells were seeded per well and incubated for 24 h at 37° C. The MDCK cells were then incubated with compounds for 48 h at 35° C. The number of metabolically viable cells was determined by the MTS assay (Promega).

[3] = test system: RDRP activity of WSN virus; type: biochemical, Influenza virus A/WSN/33 (H1N1)
[4] = test system: WSN virus; experiment: microbe, parasite or virus in culture; conditions: unidentified influenza virus, MDCK, 48 h, read-out: IC50 (μM), antiinfluenza
[5] = test system: rWSN virus (parental); experiment: microbe, parasite or virus in culture; type: cell-based; conditions: unidentified influenza virus, MDCK, 48 h, read-out: Anti-rWSN IC50 (μM), parental

Sequence of NP WT trimer (P15682 whole entry, looked up): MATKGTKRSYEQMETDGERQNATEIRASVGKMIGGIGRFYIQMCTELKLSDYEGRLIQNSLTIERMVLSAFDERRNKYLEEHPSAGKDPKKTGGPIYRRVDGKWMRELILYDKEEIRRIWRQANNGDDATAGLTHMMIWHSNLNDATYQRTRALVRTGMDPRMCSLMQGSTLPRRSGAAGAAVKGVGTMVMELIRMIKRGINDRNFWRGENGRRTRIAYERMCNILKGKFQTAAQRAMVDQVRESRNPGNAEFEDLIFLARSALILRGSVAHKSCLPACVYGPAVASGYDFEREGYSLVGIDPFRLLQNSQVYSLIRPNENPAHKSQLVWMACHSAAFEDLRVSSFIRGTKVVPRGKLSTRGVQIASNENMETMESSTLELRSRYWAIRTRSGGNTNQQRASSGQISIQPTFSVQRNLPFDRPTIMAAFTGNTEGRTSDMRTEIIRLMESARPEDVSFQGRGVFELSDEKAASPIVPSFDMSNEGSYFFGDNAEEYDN

Row | Molecule | effect of peptides on WT NP trimerization (AUC) [1] | CC50 at 48 h [2] [µM] | inhibition of viral transcription activity [3] | IC50 [4] [µM] | effect of compounds on NP WT trimer (AUC) [1] | IC50 [5] [µM]
1 | TFDSVQRN [peptide 1] | disrupted WT NP trimerization only slightly | – | – | – | – | –
2 | CC(C)C[C@@H]1NC(=O)[C@H](CC(N)=O)NC(=O)[C@H](CCCNC(=N)N)NC(=O)[C@H](CCC(N)=O)NC(=O)[C@H](C(C)C)NC(=O)[C@H](CO)NC(=O)[C@H](Cc2ccccc2)NC(=O)[C@H]([C@@H](C)O)NC(=O)[C@@H]2CCCN2C(=O)[C@H](CCC(N)=O)NC(=O)[C@@H](N)CSSC[C@@H](C(=O)O)NC1=O [peptide 3] (H-CQPTFSVQRNLC-OH; disulfide 1-12) | showed a slightly greater effect | > 2000 | reduce the viral transcription activity | – | – | –
3 | CCCCCCCCC(=O)NCC(=O)Nc1cccc(F)c1 [compound 2] | – | > 100 | – | 37.5 | able to disrupt NP trimerization and induce formation of NP monomers | –
4 | Cc1onc(-c2ccccc2)c1C(=O)N1CCN(c2ccc([N+](=O)[O-])cc2Cl)CC1 [nucleozin, reference compound] | – | – | – | – | caused aggregation of the NP trimer | –
5 | Cc1cccc(CSc2nc(=O)n(CCCO)c3c2CCC3)c1 [compound 4] | – | > 100 | – | 39.7 | able to disrupt NP trimerization and induce formation of NP monomers | –
6 | O=C(NCCCN1CCOCC1)c1csc(Nc2ccc(Cl)c(Cl)c2)n1 [compound 1] | – | 35.6 | – | 2.7 | able to disrupt NP trimerization and induce formation of NP monomers | 1.7
7 | CCCCCC(=O)NCC(=O)Nc1cc(Cl)ccc1Cl [compound 3] | – | > 100 | – | 118 | able to disrupt NP trimerization and induce formation of NP monomers | –
8 | CC(C)[C@@H]1NC(=O)[C@H](CO)NC(=O)[C@H](Cc2ccccc2)NC(=O)[C@H]([C@@H](C)O)NC(=O)[C@@H](N)CSSC[C@@H](C(=O)O)NC(=O)[C@H](CC(N)=O)NC(=O)[C@H](CCCNC(=N)N)NC(=O)[C@H](CCC(N)=O)NC1=O [peptide 2] | the effect was substantially enhanced | > 2000 | reduce the viral transcription activity | – | – | –
